Results as given in PMC11286754 (Nature Communications, 2024).

Legend:
[1] = target: T1, SMTA (transaminase from Shimia marina) (Shimia marina, UniProt A0A0P1EM06); format: binding
[2] = target: T1, SMTA (transaminase from Shimia marina); format: binding; remark: listed apart in the source

T1 sequence (A0A0P1EM06 1-462 limits assumed): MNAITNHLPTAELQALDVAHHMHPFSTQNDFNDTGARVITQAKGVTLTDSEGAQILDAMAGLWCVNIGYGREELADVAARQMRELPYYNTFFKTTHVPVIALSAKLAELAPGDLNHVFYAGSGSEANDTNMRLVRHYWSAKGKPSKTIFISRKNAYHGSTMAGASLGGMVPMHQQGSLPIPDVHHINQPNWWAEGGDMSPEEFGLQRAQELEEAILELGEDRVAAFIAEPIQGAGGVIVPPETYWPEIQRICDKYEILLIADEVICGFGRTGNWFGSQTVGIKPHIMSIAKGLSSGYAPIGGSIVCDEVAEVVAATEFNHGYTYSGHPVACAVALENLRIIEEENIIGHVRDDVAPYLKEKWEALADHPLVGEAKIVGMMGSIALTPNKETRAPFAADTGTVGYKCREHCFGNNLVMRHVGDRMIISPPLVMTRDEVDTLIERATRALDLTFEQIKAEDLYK

Row | Compound | cofactor release assay [1] | X-ray crystal structure, 2.14 A [2]
1 | Cc1ncc(COP(=O)(O)O)c(CN)c1O [PMP] | binding affinity of both PLP and PMP compared to that of wild-type SMTA | 
2 | Cc1ncc(COP(=O)(O)O)c(C=O)c1O [PLP, pyridoxal-5′-phosphate] |  | The apparent electron density indicated a Schiff base between PLP and the catalytic lysine K291
